Data: patent US20220354844A1, “METHODS OF TREATING METABOLIC DISEASES WITH FUSED BICYCLIC PYRAZOLES” (Belite Bio, Inc, priority 2017, published 2022)
Values joined by “and” are separate entries in the source; they are usually repeats but may differ in a detail not shown here. Identical values can stand only once. Like-named read-outs stand apart in the source and are kept apart here.

Legend:
[1] = Compound 1 single dose non-human primate PK study; format: in vivo, Cynomolgus Macaques; details: cynomolgus monkey, plasma, po, 5 mg/kg, NHP, single po dose 5 mg/kg; for Cmax: read-out: Cmax; for MRT last: read-out: MRT last; for Tmax: read-out: Tmax
Description: A pharmacokinetic study of Compound 1 following a single intravenous or oral dose administration to non-human primates (Cynomolgus Macaques) was conducted, the results of which are found in Table 2 and FIGS. 1-8.

[2] = Compound 1 single dose rat PK study; format: in vivo, male Sprague Dawley rats; details: for Vd: read-out: Vss
Description: A pharmacokinetic study of Compound 1 following a single intravenous or oral dose administration to male Sprague Dawley rats was conducted, the results of which are found in Table 3 and FIGS. 9-14.

[3] = male, Sprague Dawley, plasma, iv, 2 mg/kg, single iv dose 2 mg/kg, Mean of the 3 rats
[4] = male, Sprague Dawley, plasma, iv, 2 mg/kg, single iv dose 2 mg/kg, individual rats
[5] = male, Sprague Dawley, plasma, po, 5 mg/kg, single po dose 5 mg/kg, Mean of the 3 rats
[6] = male, Sprague Dawley, plasma, po, 5 mg/kg, single po dose 5 mg/kg, individual rats
[7] = single iv dose 2 mg/kg, individual rats, 2 mg/kg
[8] = single po dose 5 mg/kg, individual rats, 5 mg/kg

With `CC(=O)N1CCc2c(C(=O)N3CCC(c4ccc(F)c(F)c4C(F)(F)F)CC3)n[nH]c2C1` [Compound 1, 1-(3-(4-(3,4-difluoro-2-(trifluoromethyl)phenyl)piperidine-1-carbonyl)-1,4,5,7-tetrahydro-6H-pyrazolo[3,4-c]pyridin-6-yl)ethan-1-one] as the compound, how does the Cmax ([1]; Mean of the 3 animals) read?
Its Cmax is 406 ng/mL.

And the MRT last ([1]; Mean of the 3 animals)?
The MRT last was 10.2 h.

And the Tmax ([1]; Mean of the 3 animals)?
The Tmax was 1.67 h.

What about the AUC(0-inf) ([1]; individual animals) of the same compound?
Its AUC(0-inf) is 4720 ng·h/mL.

What about the AUC(0-t) ([1]; individual animals) of the same compound?
Its AUC(0-t) is 4580 ng·h/mL.

And the MRT inf ([1]; individual animals)?
Its MRT inf is 11.7 h.

What about the half-life ([1]; individual animals) of the same compound?
Its half-life is 8.8 h.

What about the Cmax ([1]; individual animals) of the same compound?
Its Cmax is 485 ng/mL.

What about the MRT last ([1]; individual animals) of the same compound?
The MRT last was 10.2 h.

What about the Tmax ([1]; individual animals) of the same compound?
Its Tmax is 1 h.

What about the AUC(0-inf) [2, 3] of the same compound?
The AUC(0-inf) was 3970 ng·h/mL.

What about the AUC(0-t) [2, 3] of the same compound?
The AUC(0-t) was 3950 ng·h/mL.

What about the MRT inf [2, 3] of the same compound?
Its MRT inf is 3.3 h.

What about the MRT last [2, 3] of the same compound?
Its MRT last is 3 h.

What about the clearance [2, 3] of the same compound?
The clearance was 8.68 mL/min/kg.

And the Tmax ([2]; male, Sprague Dawley, plasma, iv, 2 mg/kg, single iv dose 2 mg/kg, Mean of the 3 rats, first plasma collection time listed as Tmax)?
Its Tmax is 0.08 h.

And the Cmax ([2]; male, Sprague Dawley, plasma, iv, 2 mg/kg, single iv dose 2 mg/kg, Mean of the 3 rats, read-out: Cmax)?
Its Cmax is 1870 ng/mL.

And the Vd [2, 3]?
Its Vd is 1.68 L/kg.

What about the half-life ([2]; male, Sprague Dawley, plasma, iv, 2 mg/kg, single iv dose 2 mg/kg, Mean of the 3 rats, read-out: t1/2 (converted)) of the same compound?
The half-life was 8.5 h.

What about the AUC(0-inf) [2, 4] of the same compound?
The AUC(0-inf) was 3610 ng·h/mL.

What about the AUC(0-t) [2, 4] of the same compound?
Its AUC(0-t) is 3600 ng·h/mL.

And the MRT inf [2, 4]?
The MRT inf was 3 h.

What about the MRT last [2, 4] of the same compound?
The MRT last was 2.8 h.

And the clearance [2, 4]?
Its clearance is 9.23 mL/min/kg.

What about the Tmax ([2]; male, Sprague Dawley, plasma, iv, 2 mg/kg, single iv dose 2 mg/kg, individual rats, first plasma collection time listed as Tmax) of the same compound?
Its Tmax is 0.08 h.

And the Cmax ([2]; male, Sprague Dawley, plasma, iv, 2 mg/kg, single iv dose 2 mg/kg, individual rats, read-out: Cmax)?
Its Cmax is 1670 ng/mL.

And the Vd [2, 4]?
Its Vd is 1.69 L/kg.

What about the half-life ([2]; male, Sprague Dawley, plasma, iv, 2 mg/kg, single iv dose 2 mg/kg, individual rats, read-out: t1/2 (converted)) of the same compound?
The half-life was 8.6 h.

And the AUC(0-inf) [2, 5]?
The AUC(0-inf) was 2680 ng·h/mL.

And the AUC(0-t) [2, 5]?
The AUC(0-t) was 2640 ng·h/mL.

What about the MRT inf [2, 5] of the same compound?
Its MRT inf is 9.9 h.

And the MRT last [2, 5]?
The MRT last was 9 h.

What about the Tmax [2, 5] of the same compound?
Its Tmax is 1.42 h.

And the Cmax ([2]; male, Sprague Dawley, plasma, po, 5 mg/kg, single po dose 5 mg/kg, Mean of the 3 rats, read-out: Cmax)?
The Cmax was 390 ng/mL.

And the AUC(0-inf) [2, 6]?
The AUC(0-inf) was 3210 ng·h/mL.

And the AUC(0-t) [2, 6]?
The AUC(0-t) was 3170 ng·h/mL.

What about the MRT inf [2, 6] of the same compound?
Its MRT inf is 8.7 h.

And the MRT last [2, 6]?
Its MRT last is 8 h.

And the Cmax ([2]; male, Sprague Dawley, plasma, po, 5 mg/kg, single po dose 5 mg/kg, individual rats, read-out: Cmax)?
Its Cmax is 456 ng/mL.

What about the half-life ([2]; male, Sprague Dawley, plasma, po, 5 mg/kg, single po dose 5 mg/kg, individual rats, read-out: t1/2 (converted)) of the same compound?
The half-life was 8.2 h.

And the half-life ([2]; male, Sprague Dawley, plasma, po, 5 mg/kg, t1/2, rat, single po dose 5 mg/kg, Mean of the 3 rats, heading: t1/2)?
The half-life was 7.6 h.

And the AUCLAST [2, 7]?
The AUCLAST was 5020 ng·h/mL and 3244 ng·h/mL.

What about the AUCinf [2, 7] of the same compound?
Its AUCinf is 5055 ng·h/mL and 3256 ng·h/mL.

And the Cl [2, 7]?
The Cl was 6.6 mL/min/kg and 10.2 mL/min/kg.

What about the Cmax [2, 7] of the same compound?
The Cmax was 2400 ng/mL and 1536 ng/mL.

And the MRTinf [2, 7]?
Its MRTinf is 3.7 h and 3.1 h.

What about the MRTlast [2, 7] of the same compound?
Its MRTlast is 3.2 h and 2.9 h.

What about the t1/2 [2, 7] of the same compound?
Its t1/2 is 11.0 h and 6.0 h.

And the F ([2]; single po dose 5 mg/kg, Mean of the 3 rats)?
The F was 27.0%.

What about the AUCLAST [2, 8] of the same compound?
Its AUCLAST is 2683 ng·h/mL and 2069 ng·h/mL.

What about the AUCinf [2, 8] of the same compound?
The AUCinf was 2698 ng·h/mL and 2138 ng·h/mL.

And the Cmax [2, 8]?
The Cmax was 274 ng/mL and 440 ng/mL.

And the F [2, 8]?
The F was 32.3% and 27.2% and 21.5%.

And the MRTinf [2, 8]?
The MRTinf was 8.2 h and 12.8 h.

What about the MRTlast [2, 8] of the same compound?
The MRTlast was 11.2 h.

What about the t1/2 [2, 8] of the same compound?
Its t1/2 is 6.2 h and 8.5 h.
